Reference: patent US9492543B2, “Compositions for treating cognitive disorders” (priority 2009, dated 2016)

Columns and labels:
[1] = tested on: hippocampal excitatory synaptic transmission (fEPSP, perforant path - dentate gyrus); assay: Basal excitatory synaptic transmission (fEPSP amplitude) in the hippocampus of the freely moving rat; format: in vivo, Sprague-Dawley rat; settings: for activity on basal excitatory synaptic transmission (in words): Compound X 6 mg/kg ip, physostigmine 0.1 mg/kg ip, drug vs. vehicle, paired t-test; for DRUG FEPSP AMPLITUDE [% OF PRE-VEHICLE BASELINE ± S.E.M.]: ip, Compound X 6.0 mg/kg, physostigmine 0.1 mg/kg, 15 min post-drug period with largest increase
Protocol: (§1) Experiments were carried out in freely moving male Sprague-Dawley rats implanted with depth stimulating and recording electrodes in the hippocampus and olfactory cortex to (1) characterize the effect of a compound of Formula 1 ((2R,3S)-2-amino-3-hydroxy-3-(pyridin-4-yl)-1-(pyrrolidin-1-yl)propan-1-one) (“Compound X”) on basal excitatory synaptic transmission, a measure positively associated with behavioral performance and encoding of information; and (2) determine a possible interaction on synaptic transmission when Compound X is coapplied with physostigmine and galantamine—both members of the cholinesterase inhibitor family which has pro-cognitive efficacy in Alzheimer's Disease patients.
(§2) Field excitatory post-synaptic responses (fEPSPs) evoked by electrical stimulation were recorded in freely moving animals with depth electrodes permanently implanted in the hippocampus and olfactory cortex. Experiment 1 compared the effect of one dose level (6 mg/kg ip) of Compound X on hippocampal and cortical fEPSPs with vehicle control data. Experiment 2 compared the effect of Compound X (6 mg/kg ip) combined with either physostigmine (0.1 mg/kg ip) or galantamine (1 mg/kg ip) on hippocampal and cortical fEPSPs with vehicle control data.
(§3) Male Sprague Dawley rats, 3 months of age at the time of surgery, were used. The animals were housed individually and kept in a 12:12 light/dark cycle with food and water available ad libitum.
(§4) Preparation of animals with chronically implanted electrodes followed procedures essentially as described in earlier published work (U. Staubli and J. Scafidi, J. J. Neurosci. 17: 4820-4828 (1997)). For recordings from the hippocampus, the stimulating electrode was placed in the perforant path within the entorhinal cortex, and the recording electrode in the hilus of the hippocampal dentate gyrus. For recording from the olfactory cortex, the stimulating electrode was placed in the olfactory tract and the recording electrode in the layer I of the piriform cortex.
Ten days following recovery from surgery, the animals were acclimated to the recording cage as well as to the attachment of a recording lead to the head stage. Recording sessions began by adjusting current intensities (25-100 μA) and pulse width of the monophasic stimulation pulse (100-250 μsec) to produce a field excitatory postsynaptic potential (fEPSP) that was 50-60% of the maximum amplitude of the population-spike free response which typically ranged between 4 and 8 mV. Recording signals were amplified and filtered with a band pass of 1 Hz to 5 kHz and fed into a PC running specialized software (NacGather) that digitizes measures and stores the evoked responses. […]

[2] = tested on: excitatory synaptic transmission in the olfactory cortex (fEPSP, olfactory tract - piriform cortex layer I); assay: Basal excitatory synaptic transmission (fEPSP amplitude) in the olfactory cortex of the freely moving rat; format: in vivo, Sprague-Dawley rat; settings: for activity on basal excitatory synaptic transmission (in words): Compound X 6 mg/kg ip, drug vs. vehicle, paired t-test; for DRUG FEPSP AMPLITUDE [% OF PRE-VEHICLE BASELINE ± S.E.M.]: ip, Compound X 6.0 mg/kg, 15 min post-drug period with largest increase
Protocol: as §1, §2, §3, §4
Ten days following recovery from surgery, the animals were acclimated to the recording cage as well as to the attachment of a recording lead to the head stage. Recording sessions began by adjusting current intensities (25-100 μA) and pulse width of the monophasic stimulation pulse (100-250 μsec) to produce a field excitatory postsynaptic potential (fEPSP) that was 50-60% of the maximum amplitude of the population-spike free response which typically ranged between 4 and 8 mV. Recording signals were amplified and filtered with a band pass of 1 Hz to 5 kHz and fed into a PC running specialized software (NacGather) that digitizes measures and stores the evoked responses.
Hippocampal animals (subjects with electrodes implanted into hippocampus) were randomly assigned to one of 3 groups, i.e., Compound X alone, Compound X plus physostigmine, physostigmine alone. Cortical animals (subjects with electrodes implanted into olfactory cortex) were randomly assigned to 5 groups, i.e., Compound X alone, Compound X plus physostigmine, physostigmine alone, Compound X plus galantamine, galantamine alone. […] If changes in baseline greater than +5% were observed, the experiment was terminated for that day. All other animals were injected with test compound 20 min after vehicle, and fEPSP recording was continued for at least 2 hours, but 4 hrs if the drug effect was still present at 2 hrs. In cases where animals were used repeatedly, a minimum of three washout days followed each test session. Responses were sampled once every 20 sec throughout the experiment.
Compound X was kept frozen at approximately −20° C. in a freezer as a powder. Immediately prior the powder was dissolved in double distilled water (ddw) to make a 12 mg/ml stock and then diluted by 50% for injection at 6 mg/kg at a final volume of 1 ml/kg.
Physostigmine (eserine hemisulfate) was purchased from Sigma Aldrich and dissolved in ddw to make a 1 mg/ml stock solution. […]

| SMILES | activity on basal excitatory synaptic transmission (in words) [1] | DRUG FEPSP AMPLITUDE [% OF PRE-VEHICLE BASELINE ± S.E.M.] [1] | activity on basal excitatory synaptic transmission (in words) ([2]; galantamine 1 mg/kg ip) | activity on basal excitatory synaptic transmission (in words) ([2]; physostigmine 0.1 mg/kg ip) | DRUG FEPSP AMPLITUDE [% OF PRE-VEHICLE BASELINE ± S.E.M.] ([2]; galantamine 1.0 mg/kg) | DRUG FEPSP AMPLITUDE [% OF PRE-VEHICLE BASELINE ± S.E.M.] ([2]; physostigmine 0.1 mg/kg) |
| --- | --- | --- | --- | --- | --- | --- |
| N[C@@H](C(=O)N1CCCC1)[C@@H](O)c1ccncc1 [Compound X, (2R,3S)-2-amino-3-hydroxy-3-(pyridin-4-yl)-1-(pyrrolidin-1-yl)propan-1-one] | significant facilitatory activity | 7.86 ± 2.98 % OF PRE-VEHICLE BASELINE | significant facilitatory activity | significant facilitatory activity | 10.67 + 1.67 % OF PRE-VEHICLE BASELINE | 10.67 + 1.67 % OF PRE-VEHICLE BASELINE |
| COc1ccc2c3c1O[C@H]1C[C@@H](O)C=C[C@@]31CCN(C)C2 [Galantamine, reference compound] |  |  | inactive |  | 3.13 + 1.73 % OF PRE-VEHICLE BASELINE |  |
| CNC(=O)Oc1ccc2c(c1)[C@]1(C)CCN(C)[C@@H]1N2C [Physostigmine, reference compound] | inactive | 2.33 + 2.91 % OF PRE-VEHICLE BASELINE |  |  |  | 5.30 + 0.69 % OF PRE-VEHICLE BASELINE |
